Series [1] is described as follows: Solubility, single pH point protocol procedure. It is filed as physicochemical. As to conditions: 100 mM sodium phosphate buffer without mannitol, constant agitation. The method, then: (§1) Additional truncation of two C-terminal residues yielded 44.2 (SEQ ID NO: ). […] Thus, 44.2 (SEQ ID NO: ) was further modified by the addition of charged (hydrophilic residues) to the N-terminus and by replacement of the hydrophobic residue Val with the less hydrophobic residue Ala. […] CJI-44.8 (SEQ ID NO: 132) was stable and soluble at greater than 5 mg/ml over the pH range pH6-pH8 in an aqueous buffer.

The nature of series [2]: Stability in aqueous buffer. It is filed as physicochemical. As to conditions: pH6 to pH8.
Description: (§2) Of the above group of modified peptides, several peptides have been identified as “unique” modified peptides. […] Certain modified peptides are characterized as “unique” due to the difficulties encountered when developing a modified peptide which meets all of the stringent requirements of a “unique” peptide defined herein. In many cases, multiple modifications of a parent peptide are attempted prior to identifying a modified derivitive peptide which meets all the characteristics of a “unique” modified peptide. Unique modified peptides are particularly useful as candidate peptides for formulating injectable multipeptide therapeutic formulations of the invention because “unique” modified peptides are soluble and stable in the same physiologically acceptable pH range as well as elicit the necessary T cell reactivity of a therapeutic peptide of the invention. “Unique” modified peptides of the invention include but are not limited to the following group of modified peptides: CJ1-24.5, CJ1-43.39, CJ1-43.50, CJ1-44.8, and CJ1-44.9 all as shown in FIGS. 20 and 44. Example 21 describes the development and identification of “unique” modified peptides of the invention.
as §1

The nature of series [3]: Solubility, pH range protocol procedure. It is filed as physicochemical. As to conditions: pH range pH6 to pH8.
Description: as §2, §1

Series [4] is described as follows: Solubility testing of parent and truncated peptides (protocol not stated). It counts as physicochemical.
Description: For example, the amino acid sequence of CJI-44.8 (SEQ ID NO: 132) was derived from the protein sequence of Cry j I by first identifying those regions of the parent protein with high T cell reactivity using the set of overlapping peptides 20-mers as discussed in Example 6, and shown in FIG. 13, which covered the entire sequence. […] Since these peptides were adjacent to each other in the native protein sequence and overlapped by 10 residues, peptide CJI-44 was synthesized to capture the total T cell reactivity of both peptides. CJI-44 (SEQ ID NO: 90) (FIG. 18) is a peptide 30-mer which contains all of the sequence present in the two 20-mers CJI-31 (SEQ ID NO: 54) and CJI-32 (SEQ ID NO: 56).
as §1

For the next series, the system named is Arthus reaction. As to conditions: Usui et al. (1990); cited from earlier work.
The test system of a further series is patients' plasma IgE. As to the kind of experiment: Direct binding assay of IgE to Cry j I, Cry j II and recombinant Cry j II (Example 18). On the set-up: species or system human. The method, then: Costar assay plates were coated with Cry j I or Cry j II at 2 μg/mL or recombinant Cry j II preparation at 10 μg/mL (approximately 20% pure) in a volume of 50 μL overnight at 4° C. The coating antigens were removed and the wells were blocked with 0.5% gelatin, PVP (polyvinyl pyrolidine) 1 mg/mL in PBS, 200 μL/well for 2 hours at room temperature. The anti-Cry j I monoclonal antibody, 4B11, was serially diluted in PBS-Tween 20 starting at a 1:1000 dilution. The human plasma were serially diluted in PBS-Tween at a starting dilution of 1:2. For this set 23 plasma samples from patients symptomatic for Japanese cedar pollen allergy chosen for IgE binding analysis. The first antibody incubation proceeded overnight at 4° C. Following three washes with PBS-Tween the second antibodies were added (biotinylated goat anti-mouse Ig or goat anti-human IgE both at 1:2000) and incubated for two hours at room temperature at 100 μL/well. After washing 3 times, […]. This solution was removed and streptavidin-HRPO diluted to 1:10,000, was added at 100 μL/well. The color was allowed to develop for 2-5 minutes. The reaction was stopped by the addition of 100 μL/well of 1M phosphoric acid. Plates were read on a Microplate IL310 Autoreader (Biotek Instruments, Winooski, Vt.) with a 450 nm filter. The absorbance levels of duplicate wells were averaged. A positive binding result, indicated by a plus sign is determined to be a reading of two-fold or greater above background (no first antibody) at the second dilution of plasma ([…]).

For series [5], the system named is Cry j II reactive T cells. Kind of series: T cell proliferation assay, Cry j II primed T cell lines (Example 19). It is filed as cell-based, human. As to the method: Long term T cell lines were established by stimulation of 2×10^6 PBL/ml in bulk cultures of complete medium (RPMI-1640, 2 mM L-glutamine, 100 U/ml penicillin/streptomycin, 5×10^−5M 2-mercaptoethanol, and 10 mM HEPES supplemented with 5% heat inactivated human AB serum) with 10 μg/ml of partially purified native Cry j II for 7 days at 37° C. in a humidified 5% CO2 incubator to select for Cry j II reactive T cells. This amount of priming antigen was determined to be optimal for the activation of T cells from most Japanese cedar pollen Cry j II allergic patients. Viable cells were purified by LSM centrifugation and cultured in complete medium supplemented with 5 units recombinant human IL-2/ml and 5 units recombinant human IL-4/ml for up to three weeks until the cells no longer responded to lymphokines and were considered “rested”. The ability of the T cells to proliferate to peptides Cry j IIA (SEQ ID NO: 185) and Cry j IIB (SEQ ID NO: 186), recombinant Cry j II (rCry j II) (SEQ ID NO: 134), purified native Cry j II, was then assessed. For assay, 2×10^4 rested cells were restimulated in the presence of 2×10^4 autologous Epstein-Barr virus (EBV)-transformed B cells (prepared as described in Example 6) (gamma-irradiated with 25,000 RADS) with 2-50 ’g/ml of rCry j II (SEQ ID NO: 134), purified native Cry j II, peptides Cry j IIA (SEQ ID NO: 185) and Cry j IIB (SEQ ID NO: 186), positive control (PHA), negative control (Amb a I.1), in a volume of […] complete medium in duplicate or triplicate wells in 96-well round bottom plates for 2-4 days. […] Each well then received 1 μCi tritiated thymidine for 16-20 hours. The counts incorporated were collected onto glass fiber filter mats and processed for liquid scintillation counting. The maximum response in a titration of each peptide is expressed as the stimulation index (S.I.). The S.I. is the counts per minute (CPM) incorporated by cells in response to peptide, divided by the CPM incorporated by cells in medium only. A positivity index may be calculated by multiplying the mean S.I. (indicated above each bar in FIGS. 42 and 43) by the percentage of individuals responding to the peptide (indicated in parentheses above each bar in FIGS. 42 and 43). […]

The next series concerns IgE antibodies. As to conditions: Sakaguchi (1990), cited from earlier work.
[6] abbreviates: aqueous sodium phosphate buffer.

“Also recorded” adds a separate entry of the source. Ends that are not written are not given here.

The source of these data is patent publication US8540999B2, “Allergenic proteins and peptides from Japanese cedar pollen” (Merck Patent GmbH, priority 1991, dated 2013).

Regarding DEEGAYFVSSGKYEGGNIYTKKEAFNVE [CJ1-44.8], the results for the solubility entry in series [1] and in series [3] (setting [6]) were “very soluble” and more than 5000 µg/mL, respectively. In addition, the stability entry in series [2] is “stable”.

With “DEENGAYFVSSGKYEGGNIYTKKEAFNVE [CJ1-44.6]”, the solubility result in series [1] was “increased solubility”.

In the case of DENGAYFVSSGKYEGGNIYTKKEAFNAE [CJ1-44.5], the solubility entry in series [1] is listed as “increased solubility”.

For DKEPRARYGLVHVANNNYDPWTIEEE [CJ1-24.5], the stability result in series [2] was “stable”. Further, in series [3] (setting [6]), the solubility is more than 5000 µg/mL.

As for DVFYNGAYFVSSGKYEGGNIYTKKEAFNVE [CJ1-44], in series [4] (protocol not stated, read-out: solubility), the solubility was less than 5000 µg/mL.

On to KSMKVTVAFNQARK [CJ1-43.50], for which the stability result in series [2] is on record as “stable”. Further, in series [3] (aqueous buffer), the solubility was more than 5000 µg/mL.

On to NGAYFVSSGKYEGGNIYTKKEAFN [CJ1-44.2], for which the solubility result in series [4] (truncated analogs of CJI-44) is recorded as “solubility was improved in these sequences it still did not reach the standard”.

In the case of NGAYFVSSGKYEGGNIYTKKEAFNVE [CJ1-44.1], the solubility entry in series [4] (truncated analogs of CJI-44) is on record as “solubility was improved in these sequences it still did not reach the standard”.

B1: Sugi basic protein (i.e., Cry j I)-pullulan conjugate: Sugi basic protein covalently linked to pullulan, Usui et al. (1990) (conjugate, UniProt P18632 22-374, looked up)
Pectate lyase 1: DNPIDSCWRGDSNWAQNRMKLADCAVGFGSSTMGGKGGDLYTVTNSDDDPVNPAPGTLRYGATRDRPLWIIFSGNMNIKLKMPMYIAGYKTFDGRGAQVYIGNGGPCVFIKRVSNVIIHGLYLYGCSTSVLGNVLINESFGVEPVHPQDGDALTLRTATNIWIDHNSFSNSSDGLVDVTLTSTGVTISNNLFFNHHKVMLLGHDDAYSDDKSMKVTVAFNQFGPNCGQRMPRARYGLVHVANNNYDPWTIYAIGGSSNPTILSEGNSFTAPNESYKKQVTIRIGCKTSSSCSNWVWQSTQDVFYNGAYFVSSGKYEGGNIYTKKEAFNVENGNATPQLTKNAGVLTCSLSKRC
modifications: pullulan conjugate
On to B1, for which, in the series with Arthus reaction, the “ability to elicit the Arthus reaction, relative to native Sugi basic protein” value is recorded as “about 1,000 times lower”.

B2: purified native Cry j II: second Japanese cedar pollen allergen, purified native protein (protein)
chain: RKVEHSRHDAINIFNVEKYGAVGDGKHDCTEAFSTAWQAACKNPSAMLLVPGSKKFVVNNLFFNGPCQPHFTFKVDGIIAAYQNPASWKNNRIWLQFAKLTGFTLMGKGVIDGQGKQWWAGQCKWVNGREICNDRDRPTAIKFDFSTGLIIQGLKLMNSPEFHLVFGNCEGVKIIGISITAPRDSPNTDGIDIFASKNFHLQKNTIGTGDDCVAIGTGSSNIVIEDLICGPGHGISIGSLGRENSRAEVSYVHVNGAKFIDTQNGLRIKTWQGGSGMASHIIYENVEMINSENPILINQFYCTSASACQNQRSAVQIQDVTYKNIRGTSATAAAIQLKCSDSMPCKDIKLSDISLKLTSGKIASCLNDNANGYFSGHVIPACKNLSPSAKRKESKSHKHPKTVMVENMRAYDKGNRTRILLGSRPPNCTNKCHGCSPCKAKLVIVHRIMPQEYYPQRWICSCHGKIYHP
Take B2: the “frequency of IgE response” value with patients' plasma IgE (23 plasma samples, FIG. 40) is listed as “less”. In addition, the “plasma IgE binding response” value was “very strong reactivity” in the series on patients' plasma IgE (patient #1034) and “binds human IgE of some allergic patients; also recorded: lower overall response” in the series with patients' plasma IgE (patient plasma samples, FIGS. 31-33). Besides, the “T cell proliferative response” value in series [5] (9 patients, FIG. 43) was “react”; in series [5] (n=6 patients, FIG. 42) it was “respond well”. Moreover, the “immunological cross-reactivity with Cry j I” value in the series with IgE antibodies (Kawashima et al. (1992)) was “no immunological cross-reactivity”. The “allergic patients with IgE that only reacted with this allergen” value in the series with IgE antibodies was 14%.
